Patent US7767659B2, “Synthesis of naturally occurring ecteinascidins and related compounds” (Pharma Mar, S.A., priority 2002, dated 2010)
Read-outs that look alike come from different tables or passages of the source.

Experiments:
[1] = system: LoVo; experiment: cells; details: Homo sapiens, LoVo, 48 h
Method in brief: (§1)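 Colorimetric SRB read (490 nm) on triplicate wells after 48 h at 37 °C, 5% CO2. Dose range 10 to 10^−8 μg/ml; 5×10^3 cells/well pre-attached 18 h.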

[2] = system: A-549; experiment: cells; details: Homo sapiens, A549, 48 h
Method in brief: as §1

[3] = system: HT-29; experiment: cells; details: Homo sapiens, HT-29, 48 h
Method in brief: as §1

[4] = system: IGROV-ET; experiment: Inhibition of cells growth by colorimetric assay (SRB); details: Homo sapiens, 48 h
Method in brief: as §1

[5] = system: LNCaP; experiment: as above; details: Homo sapiens, LNCaP, 48 h
Method in brief: as §1

[6] = system: SK-MEL-28; experiment: as above; details: Homo sapiens, SK-MEL-28, 48 h
Method in brief: as §1

[7] = system: HeLa; experiment: as above; details: Homo sapiens, HeLa, 48 h
Method in brief: as §1

[8] = system: DU-145; experiment: as above; details: Homo sapiens, DU-145, 48 h
Method in brief: as §1

[9] = system: IGROV-1; experiment: as above; details: Homo sapiens, IGROV-1, 48 h
Method in brief: as §1

[10] = system: LoVo-Dox; experiment: as above; details: Homo sapiens, 48 h
Method in brief: as §1

[11] = system: SK-BR-3; experiment: as above; details: Homo sapiens, SK-BR-3, 48 h
Method in brief: as §1

[12] = system: HeLa-APL; experiment: as above; details: Homo sapiens, 48 h
Method in brief: as §1

[13] = system: PANC-1; experiment: as above; details: Homo sapiens, PANC-1, 48 h
Method in brief: as §1

[14] = system: K-562; experiment: as above; details: Homo sapiens, K562, 48 h
Method in brief: as §1

With COc1c(C)cc2c(c1OC(=O)/C=C/c1ccccc1)[C@H]1N[C@@H](C2)[C@H](O)N2C1[C@@H]1SCC(NC(=O)C(F)(F)F)C(=O)OC[C@H]2c2c3c(c(C)c(OC(C)=O)c21)OCO3 (stereo partly drawn) [compound 40] the GI50 ([1]; read-out: LOVO GI50) was 213 nM, the CC50 ([1]; read-out: LOVO LC50) was 1680 nM and the IC (TGI) ([1]; read-out: LOVO TGI) was 552 nM. For the same compound, the GI50 ([2]; read-out: A549 GI50) was 195 nM, the CC50 ([2]; read-out: A549 LC50) was 1030 nM and the IC (TGI) ([2]; read-out: A549 TGI) was 447 nM. The GI50 ([3]; read-out: HT29 GI50) was 337 nM, the CC50 ([3]; read-out: HT29 LC50) was 3840 nM and the IC (TGI) ([3]; read-out: HT29 TGI) was 1050 nM. For the same compound, the GI50 ([4]; read-out: IGROV-ET GI50) was 289 nM, the CC50 ([4]; read-out: IGROV-ET LC50) was 980 nM and the IC (TGI) ([4]; read-out: IGROV-ET TGI) was 533 nM. The GI50 ([5]; read-out: LNCAP GI50) was 48.1 nM, the CC50 ([5]; read-out: LNCAP LC50) was 509 nM and the IC (TGI) ([5]; read-out: LNCAP TGI) was 162 nM. It also gave a GI50 ([6]; read-out: MEL-28 GI50) of 162 nM, a CC50 ([6]; read-out: MEL-28 LC50) of 688 nM and an IC (TGI) ([6]; read-out: MEL-28 TGI) of 334 nM. It also gave a GI50 ([7]; read-out: HELA GI50) of 111 nM, a CC50 ([7]; read-out: HELA LC50) of 661 nM and an IC (TGI) ([7]; read-out: HELA TGI) of 276 nM. The GI50 ([8]; read-out: DU145 GI50) was 5630 nM, the CC50 ([8]; read-out: DU145 LC50) was 1630 nM and the IC (TGI) ([8]; read-out: DU145 TGI) was 160 nM. The GI50 ([9]; read-out: IGROV GI50) was 91.3 nM, the CC50 ([9]; read-out: IGROV LC50) was 1280 nM and the IC (TGI) ([9]; read-out: IGROV TGI) was 317 nM. For the same compound, the GI50 ([10]; read-out: LOVO-DOX GI50) was 354 nM, the CC50 ([10]; read-out: LOVO-DOX LC50) was 2790 nM and the IC (TGI) ([10]; read-out: LOVO-DOX TGI) was 810 nM. It also gave a GI50 ([11]; read-out: SK-BR3 GI50) of 42.6 nM, a CC50 ([11]; read-out: SK-BR3 LC50) of 524 nM and an IC (TGI) ([11]; read-out: SK-BR3 TGI) of 97.6 nM. It also gave a GI50 ([12]; read-out: HELA-APL GI50) of 153 nM, a CC50 ([12]; read-out: HELA-APL LC50) of 775 nM and an IC (TGI) ([12]; read-out: HELA-APL TGI) of 344 nM. For the same compound, the GI50 ([13]; read-out: PANC-1 GI50) was 321 nM, the CC50 ([13]; read-out: PANC-1 LC50) was 2570 nM and the IC (TGI) ([13]; read-out: PANC-1 TGI) was 747 nM. For the same compound, the GI50 ([14]; read-out: K562 GI50) was 41.4 nM, the CC50 ([14]; read-out: K562 LC50) was 776 nM and the IC (TGI) ([14]; read-out: K562 TGI) was 131 nM.
C=CCOc1c(C)c2c(c3c1CC1[C@H]4c5c(cc(C)c(OC)c5O)C[C@@H]([C@H](C#N)N1[C@H]3CN)N4C)OCO2 (stereo partly drawn) [compound 1] gave a GI50 ([1]; read-out: GI50 LOVO) of 932 nM, a CC50 ([1]; read-out: LC50 LOVO) of 19200 nM and an IC (TGI) ([1]; read-out: TGI LOVO) of 4000 nM. For the same compound, the GI50 ([2]; read-out: GI50 A549) was 1530 nM, the CC50 ([2]; read-out: LC50 A549) was 19200 nM and the IC (TGI) ([2]; read-out: TGI A549) was 6070 nM. For the same compound, the GI50 ([3]; read-out: GI50 HT29) was 1110 nM, the CC50 ([3]; read-out: LC50 HT29) was 19200 nM and the IC (TGI) ([3]; read-out: TGI HT29) was 19200 nM. The GI50 ([4]; read-out: GI50 IGROV-ET) was 970 nM, the CC50 ([4]; read-out: LC50 IGROV-ET) was 19200 nM and the IC (TGI) ([4]; read-out: TGI IGROV-ET) was 19200 nM. The GI50 ([5]; read-out: GI50 LNCAP) was 434 nM, the CC50 ([5]; read-out: LC50 LNCAP) was 1290 nM and the IC (TGI) ([5]; read-out: TGI LNCAP) was 747 nM. It also gave a GI50 ([6]; read-out: GI50 MEL-28) of 561 nM, a CC50 ([6]; read-out: LC50 MEL-28) of 6070 nM and an IC (TGI) ([6]; read-out: TGI MEL-28) of 1150 nM. The GI50 ([7]; read-out: GI50 HELA) was 1080 nM, the CC50 ([7]; read-out: LC50 HELA) was 18100 nM and the IC (TGI) ([7]; read-out: TGI HELA) was 2840 nM. The GI50 ([8]; read-out: GI50 DU145) was 567 nM, the CC50 ([8]; read-out: LC50 DU145) was 1920 nM and the IC (TGI) ([8]; read-out: TGI DU145) was 1070 nM. The GI50 ([9]; read-out: GI50 IGROV) was 901 nM, the CC50 ([9]; read-out: LC50 IGROV) was 19200 nM and the IC (TGI) ([9]; read-out: TGI IGROV) was 2590 nM. For the same compound, the GI50 ([10]; read-out: GI50 LOVO-DOX) was 6170 nM, the CC50 ([10]; read-out: LC50 LOVO-DOX) was 19200 nM and the IC (TGI) ([10]; read-out: TGI LOVO-DOX) was 19200 nM. It also gave a GI50 ([11]; read-out: GI50 SK-BR3) of 1010 nM, a CC50 ([11]; read-out: LC50 SK-BR3) of 19200 nM and an IC (TGI) ([11]; read-out: TGI SK-BR3) of 3960 nM. The GI50 ([12]; read-out: GI50 HELA-APL) was 717 nM, the CC50 ([12]; read-out: LC50 HELA-APL) was 7510 nM and the IC (TGI) ([12]; read-out: TGI HELA-APL) was 1630 nM. The GI50 ([13]; read-out: GI50 PANC-1) was 887 nM, the CC50 ([13]; read-out: LC50 PANC-1) was 19200 nM and the IC (TGI) ([13]; read-out: TGI PANC-1) was 4360 nM. For the same compound, the GI50 ([14]; read-out: GI50 K562) was 361 nM, the CC50 ([14]; read-out: LC50 K562) was 1770 nM and the IC (TGI) ([14]; read-out: TGI K562) was 799 nM.
